Each compound was assayed against T1, KRAS G12C 1-169, his-tagged protein, GDP-loaded (Homo sapiens, UniProt P01116, G12C) (assay: Biochemical assay: covalent binding to KRAS G12C, measured by mass spectrometry). Conditions: Binding activity determined at 2 hrs; Table 7b.
T1 construct: KRAS G12C 1-169, his-tagged protein, GDP-loaded
T1 sequence (P01116 1-169 isoform P01116-2 G12C): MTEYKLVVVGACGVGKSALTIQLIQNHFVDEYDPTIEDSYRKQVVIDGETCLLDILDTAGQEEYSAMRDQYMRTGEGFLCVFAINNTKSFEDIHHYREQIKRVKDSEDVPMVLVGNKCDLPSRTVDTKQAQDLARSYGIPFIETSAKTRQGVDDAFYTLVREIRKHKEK
Method: Test compounds were prepared as 10 mM stock solutions in DMSO (Fisher cat#BP-231-100). KRAS G12C 1-169, his-tagged protein, GDP-loaded was diluted to 2 μm in buffer (20 mM Hepes, 150 mM NaCl, 1 mM MgCl2). Compounds were tested for activity as follows:
Compounds were diluted to 50× final test concentration in DMSO in 96-well storage plates. Compound stock solutions were vortexed before use and observed carefully for any sign of precipitation. Dilutions were as follow: • For 100 μM final compound concentration, compounds were diluted to 5000 μM (5 μl 10 mM compound stock+5 μl DMSO and mixed well by pipetting. • For 30 μM final compound concentration, compounds were diluted to 1500 μM (3 μl 10 mM compound stock+17 μl DMSO) and mixed well by pipetting. • For […] final compound concentration, compounds were diluted to 500 μM (2 μl 10 mM compound stock+38 μl DMSO) and mixed well by pipetting. 49 μl of the stock protein solution was added to each well of a 96-well PCR plate (Fisher cat#1423027). 1 μl of the diluted 50× compounds were added to appropriate wells in the PCR plate using 12-channel pipettor. Reactions were mixed carefully and thoroughly by pipetting up/down with a 200 μl multi-channel pipettor. The plate was sealed well with aluminum plate seal, and stored in a drawer at room temperature for 2 hrs or 24 hrs. 5 μl of 2% formic acid (Fisher cat#A117) in DI H2O was then added to each well followed by mixing with a pipette. The plate was then resealed with aluminum seal and stored on dry ice until analyzed as described below.
The above described assays were analyzed by mass spectrometry according to the following procedure:
The MS instrument is set to positive polarity, 2 GHz resolution, and low mass (1700) mode and allowed to equilibrate for 30 minutes. The instrument is then calibrated, switched to acquisition mode and the appropriate method loaded.
After another 30 minute equilibration time, a blank batch (i.e., buffer) is run to ensure equipment is operating properly. The samples are thawed at 37° C. for 10 minutes, briefly centrifuged, and transfer to the bench top. Wells A1 and H12 are spiked with 1 uL 500 uM internal standard peptide, and the plates centrifuged at 2000×g for 5 minutes. The method is then run and masses of each individual well recorded.
The masses (for which integration data is desired) for each well are pasted into the platemap and exported from the analysis. Masses for the internal standards are exported as well. The data at 50 ppm is extracted for the +19 charge state, and identity of well A1 is assigned using the internal standard spike and integrated. Peak data is exported as a TOF list and the above steps are repeated individually, for the +20, 21, 22, 23, 24, and charge states.
With C=CC(=O)N1CC(N2CCN(C(=O)NCc3cc(Br)c(Cl)cc3O)CC2)C1 [Compound V-66, 4-(1-acryloylazetidin-3-yl)-N-(5-bromo-4-chloro-2-hydroxybenzyl) piperazine-1-carboxamide] the Binding % was “+ (+ indicates binding activity from 5% to 20%)”.

Same assay, conditions: Binding activity determined at 24 hrs; Table 7a
For C=CC(=O)N1CCN(C2CCN(C(=O)CNc3cc(Cl)c(Cl)cc3O)C2)CC1 (centres unmarked) [Compound V-4, 1-(4-(1-(2-(4,5-dichloro-2-hydroxyphenyl-amino)acetyl)pyrrolidin-3-yl)piperazin-1-yl)prop-2-en-1-one], the Binding % was “+++ (+++ indicates binding activity greater than 25% and up to 50%)”. For C=CC(=O)N1CCC(N2CCN(C(=O)CNc3cc(Cl)c(C)cc3O)CC2)C1 (centres unmarked) [Compound V-8, 1-(3-(4-(2-(5-chloro-2-hydroxy-4-methylphenyl-amino)acetyl)piperazin-1-yl)pyrrolidin-1-yl)prop-2-en-1-one], the Binding % was “++ (++ indicates binding activity greater than 15% and up to 25%)”. C=CC(=O)N1CC(N2CCN(CCNc3cc(Cl)c(Cl)cc3O)CC2)C1 [Compound V-15, 1-(3-(4-(2-(4,5-dichloro-2-hydroxyphenyl-amino)ethyl)piperazin-1-yl)azetidin-1-yl)prop-2-en-1-one] was tested, and the Binding % was “+ (+ indicates binding activity from 5% to 15%)”.

Same assay, conditions: Binding activity determined at 24 hrs; Table 8a
For C=CC(=O)N1CCN(C(=O)c2cc(-c3ccccc3Cl)c(Cl)cc2OC)CC1 [VI-1, 1-(4-(2′,6-dichloro-4-methoxybiphenyl-carbonyl)piperazin-1-yl)prop-2-en-1-one], the Binding % was “+ (+ indicates binding activity from 5% to 10%)”. In the case of C=CC(=O)N1CCN(C(=O)c2cc(I)c(Cl)cc2OC)CC1 [VI-2, 1-(4-(4-chloro-5-iodo-2-methoxybenzoyl)piperazin-1-yl)prop-2-en-1-one], the Binding % is reported as “++ (++ indicates binding activity greater than 10% and up to 20%)”. For C=CC(=O)N1CCN(C(=O)c2cc(-c3ccccc3Cl)c(Cl)cc2O)CC1 [VI-3, 1-(4-(2′,6-Dichloro-4-hydroxy-[1,1′-biphenyl]-3-carbonyl)piperazin-1-yl)prop-2-en-1-one], the Binding % was “++++ (++++ indicates binding activity greater than 30%)”. C=CC(=O)N1CCN(C(=O)c2cc(-c3cc(F)ccc3Cl)c(Cl)cc2OC)CC1 [VI-4, 1-(4-(2′,6-dichloro-5′-fluoro-4-methoxybiphenyl-carbonyl)piperazin-1-yl)prop-2-en-1-one] was tested, and the Binding % was “++ (++ indicates binding activity greater than 10% and up to 20%)”. C=CC(=O)N1CCN(C(=O)c2cc(-c3cc(Cl)ccc3Cl)c(Cl)cc2OC)CC1 [VI-5, 1-(4-(2′,5′,6-trichloro-4-methoxybiphenyl-carbonyl)piperazin-1-yl)prop-2-en-1-one] was tested, and the Binding % was “++++ (++++ indicates binding activity greater than 30%)”. With C=CC(=O)N1CCN(C(=O)c2cc(-c3cc(Cl)ccc3Cl)c(Cl)cc2OC)CC1CO (centres unmarked) [VI-6, 1-(2-(hydroxymethyl)-4-(2′,5′,6-trichloro-4-methoxybiphenyl-carbonyl)piperazin-1-yl)prop-2-en-1-one] the Binding % was “++ (++ indicates binding activity greater than 10% and up to 20%)”. C=CC(=O)N1CCN(C(=O)c2cc(Cl)c(Cl)cc2O)CC1 [VI-8, 1-(4-(4,5-dichloro-2-hydroxybenzoyl)piperazin-1-yl)prop-2-en-1-one] was tested, and the Binding % was “+ (+ indicates binding activity from 5% to 10%)”. In the case of C=CC(=O)N1CCN(C(=O)c2cc(Br)c(Cl)cc2O)CC1 [VI-9, 1-(4-(5-bromo-4-chloro-2-hydroxybenzoyl)piperazin-1-yl)prop-2-en-1-one], the Binding % is reported as “+ (+ indicates binding activity from 5% to 10%)”. COc1cc(Cl)c(-c2ccccc2Cl)cc1C(=O)N1CCN(C(=O)/C=C/CN(C)C)CC1 [VI-10, (E)-1-(4-(2′,6-dichloro-4-methoxybiphenyl-carbonyl)piperazin-1-yl)-4-(dimethylamino)but-2-en-1-one] was tested, and the Binding % was “+ (+ indicates binding activity from 5% to 10%)”. C=CC(=O)N1CCN(C(=O)c2cc(-c3ccccc3Cl)n[nH]2)CC1 [VI-11, 1-(4-(3-(2-chlorophenyl)-1H-pyrazole-5-carbonyl)piperazin-1-yl)prop-2-en-1-one] was tested, and the Binding % was “+ (+ indicates binding activity from 5% to 10%)”.

Source: patent US9926267B2, “Covalent inhibitors of K-Ras G12C” (Araxes Pharma LLC, priority 2013, dated 2018)
